Legend:
Assay in all cases: radiometric filter-binding kinase assay, Kinase HotSpot
Details in all cases: compound 0.5 µM; ATP 10 µM
[1] = molecular target: MAPKAPK3 (human) (UniProt Q16644)
[2] = molecular target: VRK1 (human) (UniProt Q99986)
[3] = molecular target: PAK3 (human) (UniProt O75914)
[4] = molecular target: AURKB (human) (UniProt Q96GD4)
[5] = molecular target: NUAK1 (human) (UniProt O60285)
[6] = molecular target: TGFBR2 (human) (UniProt P37173)
[7] = molecular target: CLK3 (human) (UniProt P49761)
[8] = molecular target: CSNK1G2 (human) (UniProt P78368)
[9] = molecular target: SIK2 (human) (UniProt Q9H0K1)
Chain of SIK2 (human) (Q9H0K1 whole entry, looked up): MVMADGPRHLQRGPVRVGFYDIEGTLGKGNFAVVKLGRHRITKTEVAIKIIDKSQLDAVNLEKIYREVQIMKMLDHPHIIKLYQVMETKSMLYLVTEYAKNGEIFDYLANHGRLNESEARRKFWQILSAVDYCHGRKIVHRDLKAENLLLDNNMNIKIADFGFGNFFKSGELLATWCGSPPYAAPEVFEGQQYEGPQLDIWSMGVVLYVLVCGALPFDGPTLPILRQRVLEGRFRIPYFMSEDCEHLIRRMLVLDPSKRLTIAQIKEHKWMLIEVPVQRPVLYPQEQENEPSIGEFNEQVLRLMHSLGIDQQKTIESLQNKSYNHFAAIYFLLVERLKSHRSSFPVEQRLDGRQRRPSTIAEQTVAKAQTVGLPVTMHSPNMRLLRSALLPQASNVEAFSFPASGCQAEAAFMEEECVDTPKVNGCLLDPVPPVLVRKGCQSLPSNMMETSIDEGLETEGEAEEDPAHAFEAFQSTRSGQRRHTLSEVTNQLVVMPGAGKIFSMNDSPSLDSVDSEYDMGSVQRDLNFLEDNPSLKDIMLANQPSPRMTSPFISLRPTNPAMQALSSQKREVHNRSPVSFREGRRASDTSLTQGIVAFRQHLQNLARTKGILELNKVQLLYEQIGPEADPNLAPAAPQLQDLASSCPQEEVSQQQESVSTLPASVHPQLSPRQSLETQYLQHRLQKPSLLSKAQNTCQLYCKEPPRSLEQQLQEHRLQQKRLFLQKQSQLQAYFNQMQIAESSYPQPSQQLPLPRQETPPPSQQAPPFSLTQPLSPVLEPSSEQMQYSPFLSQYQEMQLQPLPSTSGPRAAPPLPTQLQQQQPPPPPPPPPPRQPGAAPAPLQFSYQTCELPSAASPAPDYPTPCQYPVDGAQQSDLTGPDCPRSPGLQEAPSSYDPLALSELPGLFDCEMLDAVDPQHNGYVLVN

[10] = molecular target: CAMK1G (human) (UniProt Q96NX5)
[11] = molecular target: SLK (human) (UniProt Q9H2G2)
[12] = molecular target: IGF1R (human) (UniProt P08069)
[13] = molecular target: NTRK2 (human) (UniProt Q16620)
[14] = molecular target: MAP3K7 TAB1 (human) (UniProt O43318+Q15750)
[15] = molecular target: FLT3 (human) (UniProt P36888)
[16] = molecular target: GSK3A (human) (UniProt P49840)
[17] = molecular target: CHEK2 (human) (UniProt O96017)
[18] = molecular target: FRK (human) (UniProt P42685)
Chain of FRK (human) (P42685 whole entry, looked up): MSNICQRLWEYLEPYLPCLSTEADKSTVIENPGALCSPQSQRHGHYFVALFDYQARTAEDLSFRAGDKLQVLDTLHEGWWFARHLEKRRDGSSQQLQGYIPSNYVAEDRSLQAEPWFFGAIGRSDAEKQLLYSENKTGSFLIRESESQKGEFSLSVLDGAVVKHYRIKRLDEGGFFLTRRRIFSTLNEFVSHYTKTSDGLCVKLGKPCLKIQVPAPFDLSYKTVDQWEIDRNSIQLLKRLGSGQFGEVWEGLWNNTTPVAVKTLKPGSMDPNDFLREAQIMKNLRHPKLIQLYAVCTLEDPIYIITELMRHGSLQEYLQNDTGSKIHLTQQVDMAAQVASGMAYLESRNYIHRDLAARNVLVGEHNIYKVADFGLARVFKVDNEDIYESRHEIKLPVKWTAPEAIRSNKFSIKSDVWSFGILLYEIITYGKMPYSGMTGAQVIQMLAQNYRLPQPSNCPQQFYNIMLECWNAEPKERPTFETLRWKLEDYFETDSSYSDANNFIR

[19] = molecular target: MELK (human) (UniProt Q14680)
[20] = molecular target: NEK11 (human) (UniProt Q8NG66)
Chain of NEK11 (human) (Q8NG66 whole entry, looked up): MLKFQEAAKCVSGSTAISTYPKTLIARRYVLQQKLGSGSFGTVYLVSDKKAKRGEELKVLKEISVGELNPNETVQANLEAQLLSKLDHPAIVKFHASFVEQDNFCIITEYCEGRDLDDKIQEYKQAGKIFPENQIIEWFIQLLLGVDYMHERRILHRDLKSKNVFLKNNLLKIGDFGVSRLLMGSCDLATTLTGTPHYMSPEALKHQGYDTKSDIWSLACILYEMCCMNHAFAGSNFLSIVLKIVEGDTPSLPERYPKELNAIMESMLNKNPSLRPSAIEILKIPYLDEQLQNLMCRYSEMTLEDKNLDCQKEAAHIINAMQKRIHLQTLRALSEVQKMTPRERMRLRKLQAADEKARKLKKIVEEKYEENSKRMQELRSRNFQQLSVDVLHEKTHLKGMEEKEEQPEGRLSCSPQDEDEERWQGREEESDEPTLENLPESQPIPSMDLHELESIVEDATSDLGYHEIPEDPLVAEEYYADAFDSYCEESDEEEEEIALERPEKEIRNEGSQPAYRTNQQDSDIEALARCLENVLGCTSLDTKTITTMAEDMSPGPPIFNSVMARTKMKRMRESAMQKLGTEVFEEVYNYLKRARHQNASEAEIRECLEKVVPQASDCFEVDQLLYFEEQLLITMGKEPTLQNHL

[21] = molecular target: TAOK1 (human) (UniProt Q7L7X3)
[22] = molecular target: SRMS (human) (UniProt Q9H3Y6)
Chain of SRMS (human) (Q9H3Y6 whole entry, looked up): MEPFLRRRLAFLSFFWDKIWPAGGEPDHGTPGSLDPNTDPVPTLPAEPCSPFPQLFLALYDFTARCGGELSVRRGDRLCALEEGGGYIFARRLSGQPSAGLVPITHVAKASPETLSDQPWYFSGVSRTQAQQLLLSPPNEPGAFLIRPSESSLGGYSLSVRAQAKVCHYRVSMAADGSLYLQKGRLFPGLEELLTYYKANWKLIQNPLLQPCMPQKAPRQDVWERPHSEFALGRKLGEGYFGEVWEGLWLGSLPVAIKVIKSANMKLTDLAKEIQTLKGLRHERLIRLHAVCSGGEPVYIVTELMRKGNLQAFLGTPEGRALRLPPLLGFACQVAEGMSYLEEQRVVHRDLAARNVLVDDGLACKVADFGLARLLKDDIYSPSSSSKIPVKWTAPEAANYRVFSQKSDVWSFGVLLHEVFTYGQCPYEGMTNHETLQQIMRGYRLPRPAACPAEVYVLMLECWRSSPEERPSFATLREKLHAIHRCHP

[23] = molecular target: TBK1 (human) (UniProt Q9UHD2)
[24] = molecular target: MAP3K2 (human) (UniProt Q9Y2U5)
[25] = molecular target: HIPK3 (human) (UniProt Q9H422)
[26] = molecular target: CAMK2G (human) (UniProt Q13555)
[27] = molecular target: STK16 (human) (UniProt O75716)
Chain of STK16 (human) (O75716 whole entry, looked up): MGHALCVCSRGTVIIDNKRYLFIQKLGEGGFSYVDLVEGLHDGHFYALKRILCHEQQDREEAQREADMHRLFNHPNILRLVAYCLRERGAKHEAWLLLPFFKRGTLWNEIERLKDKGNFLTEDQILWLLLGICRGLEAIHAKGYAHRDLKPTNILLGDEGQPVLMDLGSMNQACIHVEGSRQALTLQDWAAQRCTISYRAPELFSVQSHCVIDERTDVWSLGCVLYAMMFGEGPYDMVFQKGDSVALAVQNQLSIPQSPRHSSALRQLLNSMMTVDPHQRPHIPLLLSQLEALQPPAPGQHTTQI

[28] = molecular target: TSSK1B (human) (UniProt Q9BXA7)
Chain of TSSK1B (human) (Q9BXA7 whole entry, looked up): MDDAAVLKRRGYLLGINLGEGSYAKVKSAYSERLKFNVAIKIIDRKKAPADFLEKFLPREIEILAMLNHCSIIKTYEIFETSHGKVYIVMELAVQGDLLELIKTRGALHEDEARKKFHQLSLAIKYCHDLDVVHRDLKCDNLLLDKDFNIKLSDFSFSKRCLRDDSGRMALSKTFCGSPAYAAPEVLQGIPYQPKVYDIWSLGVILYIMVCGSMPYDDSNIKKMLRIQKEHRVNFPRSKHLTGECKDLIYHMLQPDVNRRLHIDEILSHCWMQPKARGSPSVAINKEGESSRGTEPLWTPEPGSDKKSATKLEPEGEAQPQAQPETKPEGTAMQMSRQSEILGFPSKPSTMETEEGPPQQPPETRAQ

[29] = molecular target: MAP3K5 (human) (UniProt Q99683)
[30] = molecular target: MAP4K2 (human) (UniProt Q12851)
[31] = molecular target: SGK2 (human) (UniProt Q9HBY8)
[32] = molecular target: DAPK2 (human) (UniProt Q9UIK4)
Chain of DAPK2 (human) (Q9UIK4 whole entry, looked up): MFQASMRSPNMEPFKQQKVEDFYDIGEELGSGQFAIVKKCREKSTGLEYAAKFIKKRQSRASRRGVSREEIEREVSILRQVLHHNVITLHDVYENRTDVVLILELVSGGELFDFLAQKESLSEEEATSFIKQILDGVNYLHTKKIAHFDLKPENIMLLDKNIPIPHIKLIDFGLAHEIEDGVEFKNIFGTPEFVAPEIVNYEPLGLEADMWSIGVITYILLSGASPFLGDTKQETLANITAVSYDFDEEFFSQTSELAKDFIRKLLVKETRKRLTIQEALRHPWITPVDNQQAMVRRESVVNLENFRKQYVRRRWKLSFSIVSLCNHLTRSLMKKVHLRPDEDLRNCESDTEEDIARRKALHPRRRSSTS

[33] = molecular target: RIPK2 (human) (UniProt O43353)
[34] = molecular target: SYK (human) (UniProt P43405)
[35] = molecular target: CHEK1 (human) (UniProt O14757)
Chain of CHEK1 (human) (O14757 whole entry, looked up): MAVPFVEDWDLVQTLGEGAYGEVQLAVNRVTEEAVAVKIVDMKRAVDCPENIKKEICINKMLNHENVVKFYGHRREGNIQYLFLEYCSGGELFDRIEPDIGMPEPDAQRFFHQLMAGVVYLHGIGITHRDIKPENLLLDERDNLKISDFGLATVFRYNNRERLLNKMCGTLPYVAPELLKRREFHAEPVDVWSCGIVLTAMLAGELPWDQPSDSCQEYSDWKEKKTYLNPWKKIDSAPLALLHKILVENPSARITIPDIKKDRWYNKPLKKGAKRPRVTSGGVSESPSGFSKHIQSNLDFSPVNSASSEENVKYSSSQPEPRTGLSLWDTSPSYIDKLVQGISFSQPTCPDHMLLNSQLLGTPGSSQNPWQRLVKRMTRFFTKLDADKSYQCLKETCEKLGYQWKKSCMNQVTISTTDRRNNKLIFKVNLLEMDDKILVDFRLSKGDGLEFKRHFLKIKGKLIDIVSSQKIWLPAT

[36] = molecular target: MAPK10 (human) (UniProt P53779)
[37] = molecular target: PNCK (human) (UniProt Q6P2M8)
[38] = molecular target: JAK1 JH1 catalytic (human) (UniProt P23458)
[39] = molecular target: EPHB4 (human) (UniProt P54760)
[40] = molecular target: AXL (human) (UniProt P30530)
[41] = molecular target: IKBKB (human) (UniProt O14920)
[42] = molecular target: PRKCZ (human) (UniProt Q05513)

Chain of AURKB (human) (Q96GD4 whole entry, looked up): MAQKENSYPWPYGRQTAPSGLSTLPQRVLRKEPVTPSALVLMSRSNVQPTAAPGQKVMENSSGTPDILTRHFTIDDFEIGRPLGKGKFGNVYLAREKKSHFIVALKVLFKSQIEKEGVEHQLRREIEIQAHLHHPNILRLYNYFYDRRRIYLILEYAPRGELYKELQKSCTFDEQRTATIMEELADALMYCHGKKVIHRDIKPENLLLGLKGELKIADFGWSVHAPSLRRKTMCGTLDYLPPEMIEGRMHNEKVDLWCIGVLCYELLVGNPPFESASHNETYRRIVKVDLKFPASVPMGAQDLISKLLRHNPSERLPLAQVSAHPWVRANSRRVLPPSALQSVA
Chain of TGFBR2 (human) (P37173 whole entry, looked up): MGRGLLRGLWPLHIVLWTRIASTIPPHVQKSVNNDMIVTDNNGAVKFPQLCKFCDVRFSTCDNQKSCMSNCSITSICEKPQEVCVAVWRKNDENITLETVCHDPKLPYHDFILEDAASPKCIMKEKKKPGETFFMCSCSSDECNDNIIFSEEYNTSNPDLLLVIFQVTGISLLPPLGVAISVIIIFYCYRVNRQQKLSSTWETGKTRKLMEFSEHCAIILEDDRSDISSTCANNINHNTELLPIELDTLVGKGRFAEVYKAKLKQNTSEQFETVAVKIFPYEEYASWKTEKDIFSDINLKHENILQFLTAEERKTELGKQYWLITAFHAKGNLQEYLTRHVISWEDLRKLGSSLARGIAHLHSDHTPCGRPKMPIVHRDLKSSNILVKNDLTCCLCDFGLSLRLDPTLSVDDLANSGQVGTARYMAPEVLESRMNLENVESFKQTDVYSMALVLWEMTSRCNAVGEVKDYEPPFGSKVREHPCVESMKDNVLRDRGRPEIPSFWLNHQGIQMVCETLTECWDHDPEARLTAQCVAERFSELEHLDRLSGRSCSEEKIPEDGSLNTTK

## O=C1NC(=O)C(c2cn(CCCO)c3ncccc23)=C1c1cnccn1
[1]
  residual activity: 103%
[2]
  residual activity: 86.4%
[3]
  residual activity: 92.9%
[4]
  residual activity: 101%
[5]
  residual activity: 59.4%
[6]
  residual activity: 122%
[7]
  residual activity: 67.8%
[8]
  residual activity: 66%
[9]
  residual activity: 101%
[10]
  residual activity: 101%
[11]
  residual activity: 106%
[12]
  residual activity: 98.4%
[13]
  residual activity: 99.7%
[14]
  residual activity: 95.5%
[15]
  residual activity: 87.8%
[16]
  residual activity: 8.56%
[17]
  residual activity: 97.7%
[18]
  residual activity: 88.3%
[19]
  residual activity: 101%
[20]
  residual activity: 108%
[21]
  residual activity: 132%
[22]
  residual activity: 95.9%
[23]
  residual activity: 98.8%
[24]
  residual activity: 96.9%
[25]
  residual activity: 89.2%
[26]
  residual activity: 90.6%
[27]
  residual activity: 90.3%
[28]
  residual activity: 94.9%
[29]
  residual activity: 88.9%
[30]
  residual activity: 67.4%
[31]
  residual activity: 96.9%
[32]
  residual activity: 88.4%
[33]
  residual activity: 90.9%
[34]
  residual activity: 60%
[35]
  residual activity: 141%
[36]
  residual activity: 88%
[37]
  residual activity: 94.9%
[38]
  residual activity: 117%
[39]
  residual activity: 95.2%
[40]
  residual activity: 104%
[41]
  residual activity: 87.3%
[42]
  residual activity: 88.5%

## O=C1NC(=O)/C(=C\c2ccc3nccnc3c2)S1
[1]
  residual activity: 104%
[2]
  residual activity: 94.9%
[3]
  residual activity: 97.4%
[4]
  residual activity: 101%
[5]
  residual activity: 92.8%
[6]
  residual activity: 108%
[7]
  residual activity: 80.8%
[8]
  residual activity: 83.4%
[9]
  residual activity: 102%
[10]
  residual activity: 105%
[11]
  residual activity: 96.3%
[12]
  residual activity: 92%
[13]
  residual activity: 90.7%
[14]
  residual activity: 98.7%
[15]
  residual activity: 95.2%
[16]
  residual activity: 88.8%
[17]
  residual activity: 90.3%
[18]
  residual activity: 91.7%
[19]
  residual activity: 90.7%
[20]
  residual activity: 111%
[21]
  residual activity: 82.8%
[22]
  residual activity: 96.6%
[23]
  residual activity: 90.6%
[24]
  residual activity: 108%
[25]
  residual activity: 92.4%
[26]
  residual activity: 101%
[27]
  residual activity: 91.9%
[28]
  residual activity: 78.6%
[29]
  residual activity: 102%
[30]
  residual activity: 86.1%
[31]
  residual activity: 99.3%
[32]
  residual activity: 139%
[33]
  residual activity: 76.8%
[34]
  residual activity: 98%
[35]
  residual activity: 99.4%
[36]
  residual activity: 96%
[37]
  residual activity: 101%
[38]
  residual activity: 103%
[39]
  residual activity: 101%
[40]
  residual activity: 112%
[41]
  residual activity: 96.1%
[42]
  residual activity: 103%
